This series deals with foals. Set-up: species or system horse. Conditions: in vivo. As for the experimental part: Two days before the injection of the peptide-1, a foal along with the mare was brought from the pasture to a bedded stall of the LSU School of Veterinary Medicine. They were fed hay and concentrated horse chow (Horse Chow #200^R, Purina Mills, St. Louis, Mo.); water was provided ad libitum. A physical examination was conducted on the day of injection. The foal's body temperature, heart rate, respiratory rate, body weight, body score, sex, breed, age and general physical conditions were recorded. After the physical examination, 5 ml of blood was drawn from jugular vein to determine pre-immune antibody titer (control value) and CBC.
Since the peptide-1 has not been tried in any animals, the first foal was used to test the injection method and dosage. A low dose of 0.1 mg/kg body weight of conjugated peptide-1 with KLH was used, but without an adjuvant to minimize any adverse reactions due to either a high dose of peptide-1 or adjuvant. This protocol allowed a determination of any reaction due to the conjugated peptide-1 alone. A subcutaneous route of administration was chosen to produce a consistent “slow and steady” absorption. The first injection was given on the left side of the neck after cleaning with alcohol. […] After the injection, 5 ml blood was collected weekly. A booster injection with the same dose and route was given on the right side of the neck on the 15th day following the initial injection. Weekly blood collections continued for 42 days. […] For the remaining foals, a new protocol was used in that an adjuvant was added to the injection and the booster injection was given on the 28th day after the initial injection.
Immediately after injection (either the first injection or the booster), a small swelling (size 1″×0.5″) at the site of injection was observed. The foal was observed continuously for the first hour and later every hour for eight hours. The foal evinced pain upon touch at the injection site, but it was eating, nursing, and drinking within 15 minutes after injection. […] No sweating, fever, cough, seizure or difficulty in breathing was observed.
The foal remained under close observation for another two days, when the swelling began to subside. On the third day, foal and mare were allowed to go to the pasture. A similar swelling occurred at the booster injection time also. Therefore, in the animal protocol, foals would be kept in the bedded stall with the mare for a week after injection to observe the foals closely. In addition, the protocol demanded that if the swollen area is more than 2.5″ in diameter and more than 0.5″ in thickness, hot water packs are to be applied to relieve pain and swelling. Veterinary medical care is to be consulted if the condition worsens. After one week in the stall, the Foal #2 was let out to pasture and continued to do well for the remainder of the experimental period of 57 days.
The basic protocol is as described for Foal #2. However, before injecting the peptide, extra care was taken in cleaning the injection site by scrubbing the site with Septisol antiseptic foam (Septisol^R, Steris Corp., Ohio) and alcohol. […] There was a small swelling in this foal which lasted only for 24 hours, probably due to the adjuvant. The adjuvant has an oily consistency, which would facilitate slow absorption of the injected solution.

Residues, ends and D or L forms follow the SMILES beside them.

In the case of `CC[C@H](C)[C@H](NC(=O)[C@H](CCCCN)NC(=O)[C@H](CC(=O)O)NC(=O)[C@H](CCSC)NC(=O)[C@H](CC(C)C)NC(=O)[C@H](CCCCN)NC(=O)[C@H](CC(C)C)NC(=O)[C@@H](NC(=O)[C@H](CO)NC(=O)[C@H](CC(=O)O)NC(=O)[C@H](CCCCN)NC(=O)[C@@H](NC(=O)[C@H](CC(N)=O)NC(=O)[C@@H](N)CCCCN)[C@@H](C)O)[C@@H](C)CC)C(=O)N[C@@H](C)C(=O)N[C@@H](CCCCN)C(=O)N[C@@H](CO)C(=O)N1CCC[C@H]1C(=O)N[C@@H](CC(C)C)C(=O)N[C@@H](CS)C(=O)N[C@@H](C)C(=O)O` [Peptide-1] (H-KNTKDSILKLMDKIAKSPLCA-OH), the “area of swelling at the injection site” value is recorded as 2.5″×2″, the “size of swelling at the site of injection” value is 1″×0.5″ and the “thickness of swelling at the injection site” value is reported as 0.5 ″. Besides, where the note is “sc, 0.1 mg/kg”, the duration of swelling turned out to be 24 h and the other adverse reaction result was “no other adverse reaction”.

The values are drawn from patent US9546200B2, “Peptide for protection of allergic respiratory disorders” (Board of Supervisors of Louisiana State University and …, priority 2011, dated 2017).
